Assay results as given in patent publication US20130331314A1, “PHARMACEUTICAL COMPOSITION FOR TREATING HCV INFECTIONS” (Hoffmann-La Roche Inc., priority 2010, published 2013).

Experiment: Biopharmaceutical Classification System class
Format: physicochemical
Settings: solubility and permeability limited oral absorption

CC(C)(C)OC(=O)N[C@H]1CCCCC/C=C\[C@@H]2C[C@@]2(C(=O)NS(=O)(=O)C2CC2)NC(=O)[C@@H]2C[C@@H](OC(=O)N3Cc4cccc(F)c4C3)CN2C1=O [Compound I, 4-fluoro-1,3-dihydro-isoindole-2-carboxylic acid (Z)-(1S,4R,6S,14S, 18R)-14-tert-butoxycarbonylamino-4-cyclopropanesulfonylaminocarbonyl-2,15-dioxo-3,16-diaza-tricyclo[14.3.0.0^4,6]nonadec-7-en-18-yl ester]
Biopharmaceutical Classification System class: Class 4
